This note sets out measurements from US11337976B2 (Plexxikon Inc., priority 2011, dated 2022).

SMILES strings stand for the structures. A value given as a limit tells only on which side of the number the result lay.

For this assay, the system named is A375 melanoma cells (B-Raf V600E mutation). The assay is described as follows: A375 (A375_P-ERK) cell activity / cell growth inhibition assay. In kind it is cell-based, human. The settings on record: Homo sapiens, A-375; A375 cells (text: A375_P-ERK).

As to `O=C(c1cccc(NS(=O)(=O)N2CCCC2)c1F)c1c[nH]c2ncc(C3CC3)cc12` [P-0274, N-[3-(5-cyclopropyl-1H-pyrrolo[2,3-b]pyridine-3-carbonyl)-2-fluoro-phenyl]pyrrolidine-1-sulfonamide], the IC50 is < 1 µM.
The figure for `CCN(C)S(=O)(=O)Nc1ccc(F)c(C(=O)c2c[nH]c3ncc(-c4cnc(N5CCC(O)CC5)nc4)cc23)c1F` [P-0275] is < 1 µM; for `CCN(C)S(=O)(=O)Nc1ccc(F)c(C(=O)c2c[nH]c3ncc(-c4cccc(C5(C#N)CC5)c4)cc23)c1F` [P-0276, 5-[3-(1-cyanocyclopropyl)phenyl]-3-[3-[[ethyl(methyl)sulfamoyl]amino]-2,6-difluoro-benzoyl]-1H-pyrrolo[2,3-b]pyridine] it is < 1 µM; for `CCN(C)S(=O)(=O)Nc1ccc(F)c(C(=O)c2c[nH]c3ncc(-c4cnc(N5CCC5)nc4)cc23)c1F` [P-0277, 5-[2-(azetidin-1-yl)pyrimidin-5-yl]-3-[3-[[ethyl(methyl)sulfamoyl]amino]-2,6-difluoro-benzoyl]-1H-pyrrolo[2,3-b]pyridine] it is < 1 µM.
The figure for `Nc1ncc(-c2cnc3[nH]cc(C(=O)c4c(F)ccc(NS(=O)(=O)N5CCCC5)c4F)c3c2)cn1` [P-0279, N-[3-[5-(2-aminopyrimidin-5-yl)-1H-pyrrolo[2,3-b]pyridine-3-carbonyl]-2,4-difluoro-phenyl]pyrrolidine-1-sulfonamide] is > 1 µM; for `Nc1nccc(-c2cnc3[nH]cc(C(=O)c4c(F)ccc(NS(=O)(=O)N5CCCC5)c4F)c3c2)n1` [P-0280, N-[3-[5-(2-aminopyrimidin-4-yl)-1H-pyrrolo[2,3-b]pyridine-3-carbonyl]-2,4-difluoro-phenyl]pyrrolidine-1-sulfonamide] it is < 1 µM.
In the case of `O=C(c1cccc(NS(=O)(=O)N2CCCC2)c1F)c1c[nH]c2ncc(-c3ccncc3)cc12` [P-0281, N-[2-fluoro-3-[5-(4-pyridyl)-1H-pyrrolo[2,3-b]pyridine-3-carbonyl]phenyl]pyrrolidine-1-sulfonamide] it was < 1 µM; in that of `O=C(c1c(F)ccc(NS(=O)(=O)N2CCCC2)c1F)c1c[nH]c2ncc(-c3ccnc(N4CCOCC4)n3)cc12` [P-0282, N-[2,4-difluoro-3-[5-(2-morpholinopyrimidin-4-yl)-1H-pyrrolo[2,3-b]pyridine-3-carbonyl]phenyl]pyrrolidine-1-sulfonamide], < 1 µM.
As to `CCN(C)S(=O)(=O)Nc1ccc(F)c(C(=O)c2c[nH]c3ncc(-c4ccnc(F)c4)cc23)c1F` [P-0283, 3-[3-[[ethyl(methyl)sulfamoyl]amino]-2,6-difluoro-benzoyl]-5-(2-fluoro-4-pyridyl)-1H-pyrrolo[2,3-b]pyridine], the IC50 was > 1 µM.
In the case of `O=C(c1c(F)ccc(NS(=O)(=O)N2CCCC2)c1F)c1c[nH]c2ncc(-c3ccnc(N4CCOCC4)c3)cc12` [P-0284, N-[2,4-difluoro-3-[5-(2-morpholino-4-pyridyl)-1H-pyrrolo[2,3-b]pyridine-3-carbonyl]phenyl]pyrrolidine-1-sulfonamide] it was < 1 µM.
As to `CN1CCN(c2cc(-c3cnc4[nH]cc(C(=O)c5c(F)ccc(NS(=O)(=O)N6CCCC6)c5F)c4c3)ccn2)CC1` [P-0285, N-[2,4-difluoro-3-[5-[2-(4-methylpiperazin-1-yl)-4-pyridyl]-1H-pyrrolo[2,3-b]pyridine-3-carbonyl]phenyl]pyrrolidine-1-sulfonamide], the concentration for half-maximal inhibition (IC50) was < 1 µM.
In the case of `COc1cc(-c2cnc3[nH]cc(C(=O)c4c(F)ccc(NS(=O)(=O)N5CCCC5)c4F)c3c2)ccn1` [P-0287, N-[2,4-difluoro-3-[5-(2-methoxy-4-pyridyl)-1H-pyrrolo[2,3-b]pyridine-3-carbonyl]phenyl]pyrrolidine-1-sulfonamide] it was < 1 µM.
Regarding `O=C(c1c(F)ccc(NS(=O)(=O)N2CC[C@H](F)C2)c1F)c1c[nH]c2ncc(-c3cnc(C4CC4)nc3)cc12` [P-0289, (3S)—N-[3-[5-(2-cyclopropylpyrimidin-5-yl)-1H-pyrrolo[2,3-b]pyridine-3-carbonyl]-2,4-difluoro-phenyl]-3-fluoro-pyrrolidine-1-sulfonamide], the half-inhibitory concentration (IC50) is < 1 µM.
The figure for `CCN(C)S(=O)(=O)Nc1ccc(F)c(C(=O)c2c[nH]c3ncc(-c4cnc(N(C)C)nc4)cc23)c1F` [P-0292, 5-[2-(dimethylamino)pyrimidin-5-yl]-3-[3-[[ethyl(methyl)sulfamoyl]amino]-2,6-difluoro-benzoyl]-1H-pyrrolo[2,3-b]pyridine] is < 1 µM; for `CCN(C)S(=O)(=O)Nc1ccc(F)c(C(=O)c2c[nH]c3ncc(-c4cnc(N5CCCC5)nc4)cc23)c1F` [P-0293, 3-[3-[[ethyl(methyl)sulfamoyl]amino]-2,6-difluoro-benzoyl]-5-(2-pyrrolidin-1-ylpyrimidin-5-yl)-1H-pyrrolo[2,3-b]pyridine] it is < 1 µM.
`O=C(c1c(F)ccc(NS(=O)(=O)N2CCCC2)c1F)c1c[nH]c2ncc(-c3ccnc(C4CC4)c3)cc12` [P-0295, N-[3-[5-(2-cyclopropyl-4-pyridyl)-1H-pyrrolo[2,3-b]pyridine-3-carbonyl]-2,4-difluoro-phenyl]pyrrolidine-1-sulfonamide]: the half-maximal inhibitory concentration (IC50) is < 1 µM.
With `CCN(C)S(=O)(=O)Nc1cccc(C(=O)c2c[nH]c3ncc(C4CCC4)cc23)c1F` [P-0297, 5-cyclobutyl-3-[3-[[ethyl(methyl)sulfamoyl]amino]-2-fluoro-benzoyl]-1H-pyrrolo[2,3-b]pyridine], the IC50 was > 1 µM.
The figure for `CCN(C)S(=O)(=O)Nc1cccc(C(=O)c2c[nH]c3ncc(C4CC4)cc23)c1F` [P-0298, 5-cyclopropyl-3-[3-[[ethyl(methyl)sulfamoyl]amino]-2-fluoro-benzoyl]-1H-pyrrolo[2,3-b]pyridine] is > 1 µM; for `Nc1cc(-c2cnc3[nH]cc(C(=O)c4cccc(NS(=O)(=O)N5CCCC5)c4F)c3c2)ncn1` [P-0299, N-[3-[5-(6-aminopyrimidin-4-yl)-1H-pyrrolo[2,3-b]pyridine-3-carbonyl]-2-fluoro-phenyl]pyrrolidine-1-sulfonamide] it is > 1 µM.
Consider `CCN(C)S(=O)(=O)Nc1ccc(F)c(C(=O)c2c[nH]c3ncc(-c4ccc(C(F)(F)F)cc4)cc23)c1F` [P-0301, 3-[3-[[ethyl(methyl)sulfamoyl]amino]-2,6-difluoro-benzoyl]-5-[4-(trifluoromethyl)phenyl]-1H-pyrrolo[2,3-b]pyridine], for which the 50% inhibitory concentration (IC50) was < 1 µM.
On to `CCN(C)S(=O)(=O)Nc1ccc(F)c(C(=O)c2c[nH]c3ncc(-c4ccc(N5CCCC5)cc4)cc23)c1F` [P-0303, 3-[3-[[ethyl(methyl)sulfamoyl]amino]-2,6-difluoro-benzoyl]-5-(4-pyrrolidin-1-ylphenyl)-1H-pyrrolo[2,3-b]pyridine], for which the IC50 was > 1 µM.
The figure for `CCN(C)S(=O)(=O)Nc1ccc(F)c(C(=O)c2c[nH]c3ncc(-c4ccc(-c5nnc(C)o5)cc4)cc23)c1F` [P-0304, 2-[4-[3-[3-[[ethyl(methyl)sulfamoyl]amino]-2,6-difluoro-benzoyl]-1H-pyrrolo[2,3-b]pyridin-5-yl]phenyl]-5-methyl-1,3,4-oxadiazole] is < 1 µM; for `CCN(C)S(=O)(=O)Nc1ccc(F)c(C(=O)c2c[nH]c3ncc(-c4ccc(-c5nnc(NC)s5)cc4)cc23)c1F` [P-0305, 2-[4-[3-[3-[[ethyl(methyl)sulfamoyl]amino]-2,6-difluoro-benzoyl]-1H-pyrrolo[2,3-b]pyridin-5-yl]phenyl]-5-(methylamino)-1,3,4-thiadiazole] it is < 1 µM; for `CCN(C)S(=O)(=O)Nc1ccc(F)c(C(=O)c2c[nH]c3ncc(-c4cncc(C(C)(C)O)c4)cc23)c1F` [P-0306, 3-[3-[[ethyl(methyl)sulfamoyl]amino]-2,6-difluoro-benzoyl]-5-[5-(1-hydroxy-1-methyl-ethyl)-3-pyridyl]-1H-pyrrolo[2,3-b]pyridine] it is > 1 µM.
In the case of `CCN(C)S(=O)(=O)Nc1ccc(F)c(C(=O)c2c[nH]c3ncc(-c4ccc(C(C)(C)O)nc4)cc23)c1F` [P-0307, 3-[3-[[ethyl(methyl)sulfamoyl]amino]-2,6-difluoro-benzoyl]-5-[6-(1-hydroxy-1-methyl-ethyl)-3-pyridyl]-1H-pyrrolo[2,3-b]pyridine] it was < 1 µM; in that of `CCN(CC)c1ccc(-c2cnc3[nH]cc(C(=O)c4c(F)ccc(NS(=O)(=O)N(C)CC)c4F)c3c2)cc1` [P-0308, 5-[4-(diethylamino)phenyl]-3-[3-[[ethyl(methyl)sulfamoyl]amino]-2,6-difluoro-benzoyl]-1H-pyrrolo[2,3-b]pyridine], < 1 µM.
The figure for `CCN(C)S(=O)(=O)Nc1ccc(F)c(C(=O)c2c[nH]c3ncc(-c4ccc5c(c4)NC(=O)C5)cc23)c1F` [P-0309, 3-[3-[[ethyl(methyl)sulfamoyl]amino]-2,6-difluoro-benzoyl]-5-(2-oxoindolin-6-yl)-1H-pyrrolo[2,3-b]pyridine] is < 1 µM; for `CCN(C)S(=O)(=O)Nc1ccc(F)c(C(=O)c2c[nH]c3ncc(-c4ccc(-c5noc(C)n5)s4)cc23)c1F` [P-0310, 3-[5-[3-[3-[[ethyl(methyl)sulfamoyl]amino]-2,6-difluoro-benzoyl]-1H-pyrrolo[2,3-b]pyridin-5-yl]-2-thienyl]-5-methyl-1,2,4-oxadiazole] it is < 1 µM; for `CCN(C)S(=O)(=O)Nc1ccc(F)c(C(=O)c2c[nH]c3ncc(-c4ccc5nc(N)ncc5c4)cc23)c1F` [P-0311, 2-amino-6-[3-[3-[[ethyl(methyl)sulfamoyl]amino]-2,6-difluoro-benzoyl]-1H-pyrrolo[2,3-b]pyridin-5-yl]quinazoline] it is < 1 µM.
As for `CCN(C)S(=O)(=O)Nc1ccc(F)c(C(=O)c2c[nH]c3ncc(-c4ccc5nc(N(C)C)ncc5c4)cc23)c1F` [P-0313, 2-(dimethylamino)-6-[3-[3-[[ethyl(methyl)sulfamoyl]amino]-2,6-difluoro-benzoyl]-1H-pyrrolo[2,3-b]pyridin-5-yl]quinazoline], the concentration for half-maximal inhibition (IC50) is < 1 µM.
In the case of `CCN(C)S(=O)(=O)Nc1ccc(F)c(C(=O)c2c[nH]c3ncc(-c4ccc(C5(O)CC5)cc4)cc23)c1F` [P-0314, 3-[3-[[ethyl(methyl)sulfamoyl]amino]-2,6-difluoro-benzoyl]-5-[4-(1-hydroxycyclopropyl)phenyl]-1H-pyrrolo[2,3-b]pyridine] it was < 1 µM.
